From publication PMC5447021, “TNF Lectin-Like Domain Restores Epithelial Sodium Channel Function in Frameshift Mutants Associated with Pseudohypoaldosteronism Type 1B” (Frontiers in Immunology, 2017)
Entries after “also recorded” stand apart in the source; their conditions may differ. Marks after values point to notes of the source that are not given here.

How the values were obtained:
[1] = tested on: δ-ENaC; conditions: HEK-293, 5 and 10 min; returns after 1 h; cited from earlier work
[2] = tested on: αF435fs (co-expressed with βγ-ENaC); assay: Whole-cell patch clamp, αF435fs + WT βγ; format: cell-based, human; conditions: read-out: EC50, solnatide, HEK-293, whole-cell, -100 mV, n = 7
Protocol: Point mutations of α-, β-, γ- and δ-hENaC and PHA1B frameshift mutations of α-hENaC were prepared with the QuikChange Lightning Site-Directed Mutagenesis Kit (Agilent Technologies, CA, USA). Mutagenic primers were designed individually with the Primer Design Program provided on the producer’s website or for the frameshift mutations the same base changes as reported in patients (see Table 2) were performed. Primers were ordered from Sigma-Aldrich, Vienna, Austria.
HEK-293 cells were transfected 1 day after cell seeding using X-tremeGENE HP DNA transfection reagent (Roche Diagnostics, Mannheim, Germany) according to the manufacturer’s protocol. A set of WT or mutant αβγ- or δβγ-hENaC, or α-, β-, γ-, or δ-hENaC alone was used, and the ratio of DNA to transfection reagent was 1:3. The expression was highest 48–72 h after transfection.
Electrophysiological experiments were performed as described in detail by Shabbir et al. ([16]). […] Currents were recorded with the patch clamp method in the whole-cell mode. The chamber contained 1 ml of the bath solution of the following composition (in mM): 145 NaCl, 2.7 KCl, 1.8 CaCl2, 2 MgCl2, 5.5 glucose, and 10 HEPES, adjusted to pH 7.4 with 1 M NaOH solution. Micropipettes were pulled from thin-walled borosilicate glass capillaries (Harvard Apparatus, Holliston, MA, USA) with a DMZ Zeitz Puller to obtain electrode resistances ranging from 2 to 5 MΩ. […]

[3] = tested on: WT or mutant frameshift α-ENaC; assay: Membrane abundance of α-ENaC, WT or mutant frameshift (overall); format: cell-based, human; conditions: HEK-293, WT or mutant frameshift α-ENaC
Protocol: (§1) Cell surface biotinylation was performed as previously described ([26]). In brief, A549 cells or transiently transfected HEK-293 cells were grown in 10 cm dishes in 37°C, 5% CO2 incubator in DMEM medium supplemented with 5% FBS. […] Medium was aspirated, and then cells were washed twice with 10 ml ice-cold phosphate-buffered saline (PBS), covered with 2.5 mg EZ-Link Sulfo-NHS-SS-Biotin (Thermo Scientific, Rockford, USA), dissolved in 10 ml ice-cold PBS, and incubated at 4°C with gentle agitation for 30 min. Fifty milliliters of quenching solution were added to cells; then cells were scraped in solution and transferred to fresh 50 ml tube. Cell suspension was centrifuged at 500 × g for 3 min. Supernatant was discarded, and 5 ml of Tris-buffered saline (TBS) was added to the cell pellet. The cell pellet was resuspended and centrifuged at 500 × g for 3 min. Supernatant was discarded and cell pellet was resuspended in lysis buffer containing protease inhibitor cocktail (10 µM pepstatin A, 10 µM phenylmethylsulfonyl fluoride, and 10 µM leupeptin) and transferred to fresh 1.5 ml centrifuge tube. Cell pellet was then homogenized on ice by ultrasonication using 1 s bursts and incubated on ice for at least 30 min. Intact cells and nuclei were pelleted by centrifugation at 10,000 × g for 2 min under cooling conditions. […] Exposed films were scanned and quantified using ImageJ (NIH, MD, USA). […]

[4] = tested on: αE272fs; assay: Membrane abundance of αE272fs; format: cell-based, human; conditions: 200 nM, relative to WT control (=1), own control 0.35 ± 0.06, p < 0.001 vs control
Protocol: as §1

[5] = tested on: αR448fs; assay: Membrane abundance of αR448fs; format: cell-based, human; conditions: n = 4
Protocol: as §1, with “conditions. Pellet was then discarded and supernatant was transferred to fresh tube, incubated overnight with 0.5 ml NeutrAvidin Agarose under gentle rotation at 4°C and centrifuged at 500 × g for 5 min under cooling conditions. Supernatant was then discarded and the pellet washed twice with 200 µl lysis buffer. The biotinylated proteins were eluted with 100 µl sodium dodecyl sulfate (SDS) sample buffer (62.5 mM Tris, pH 6.8, 1% SDS, 10% glycerine, 50 mM dithiothreitol) containing 10 µM E64 at 65°C for 10 min. Sample was then centrifuged at 500 × g for 2 min. Pellet was discarded and supernatant subjected to protein electrophoresis and immunoblotting. The biotinylated proteins were separated under reducing conditions by SDS-PAGE using 7.5% SDS gel along with prestained protein marker (cat. #12949 from Cell Signaling). Proteins were then transferred onto a nitrocellulose membrane (UltraCruzTM […], Santa Cruz Biotechnology, TX, USA) by semi-dry blotting at 25 V for 30 min. Unspecific binding sites were blocked by incubating the membrane overnight at 4°C with 3% FBS in PBS supplemented with 0.02% sodium azide. Membrane was then incubated for 90 min with primary antibody (anti-α-hENaC, anti-δ-hENaC, and anti-β-actin from Sigma Aldrich; anti-β- and anti-γ-hENaC from Santa Cruz Biotechnology).” for “conditions.”

C[C@@H]1NC(=O)CNC(=O)[C@H](CCC(=O)O)NC(=O)[C@@H]2CCCN2C(=O)[C@H]([C@@H](C)O)NC(=O)[C@H](CCC(=O)O)NC(=O)[C@H](CCCNC(=N)N)NC(=O)[C@H](CCC(N)=O)NC(=O)CNC(=O)[C@@H](N)CSSC[C@@H](C(=O)O)NC(=O)[C@H](Cc2ccc(O)cc2)NC(=O)[C@H](Cc2c[nH]c3ccccc23)NC(=O)[C@@H]2CCCN2C(=O)[C@H](CCCCN)NC(=O)[C@H](C)NC(=O)[C@H](CCC(=O)O)NC1=O [solnatide, L-cysteine, L-cysteinylglycyl-L-glutaminyl-L-arginyl-L-α-glutamyl-L-threonyl-L-prolyl-L-α-glutamylglycyl-L-alanyl-L-α-glutamyl-L-alanyl-L-lysyl-L-prolyl-L-tryptophyl-L-tyrosyl-, cyclic (1→17)-disulfide]
Membrane abundance, solnatide [1]: significant statistically | EC50 [2]: 0.0646 ± 0.0087 µM | Membrane abundance of α-ENaC [3]: transient and significant increase in membrane abundance of α-ENaC | Membrane abundance, solnatide 5 min ([4]; 5 min): 0.72 ± 0.03 | Membrane abundance, solnatide 10 min ([4]; 10 min): 0.64 ± 0.05 | Membrane abundance ([5]; glycosylated αR448fs, 200 nM solnatide, 5 min): highly increased after 5 min of solnatide treatment | Increase in membrane abundance after PNGase F ([5]; αR448fs, 200 nM solnatide, 100 units PNGase F): completely abolished in deglycosylated mutants; also recorded: after PNGase F treatment no differences can be observed | Membrane abundance, solnatide 5 min ([5]; αR448fs, 200 nM, 5 min, relative to WT control (=1), own control 1.32 ± 0.10, p < 0.001 vs control): 5.88 ± 0.32*** | Membrane abundance, solnatide 10 min ([5]; αR448fs, 200 nM, 10 min, relative to WT control (=1), own control 1.32 ± 0.10): 1.30 ± 0.12
